From patent publication US20240383923A1, “HETEROARYL DERIVATIVE AND USE THEREOF” (VORONOI INC., priority 2022, published 2024)

Tests used:
BT-474 cancer cells = test: Inhibition of BT-474 cell proliferation (CellTiter-Glo); type: cell-based; settings: Homo sapiens, BT-474 cells, 120 hours
In short: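 BT-474 cells in RPMI-1640 with 20% FBS, seeded 48 h before dosing with 11 three-fold dilutions (final 0.2 nM to 10 μM). Viability read by CellTiter-Glo luminescence 120 h after treatment, triplicate tests. GI50 derived from growth rate (%) versus control.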

N-87 cancer cells = test: Inhibition of N-87 cell proliferation (CellTiter-Glo); type: cell-based; settings: N-87 cells, 72 hours
Procedure: N-87 cancer cells were cultured by using RPMI-1640 medium with 10% FBS. The N-87 cancer cells were seeded to a white clear bottom 96 well plate (Corning) at 5,000 cells per well 24 hours before the […] cancer cells were treated with Example Compounds. Example Compounds were diluted in dimethylsulfoxide (5-fold diluted, total 11 concentrations) and 0.5 μL each was injected so that the final concentration was […]. For the measurement of living cells, the cells were stored at room temperature for 10 minutes using the CellTiter-Glo cell viability reagent (Promega) after 72 hours after the treatment of Example Compounds, and then the luminescence intensity was measured using the reader (SynergyNeo, Biotek).
The result value was calculated as a cell growth rate (%) compared to a control group. Graphs were plotted and GI50 values were calculated using the GraphPad Prism version 8.0 program, and the results are shown in Table 18 below.

SMILES	GI50 (BT-474 cancer cells)	GI50 (N-87 cancer cells)
C=CC(=O)N1CCC(Oc2cc3c(Nc4ccc(Oc5ccn(-c6cnc(C)c(F)c6)n5)cc4OC)ncnc3cc2OC)CC1 [Example 9, 1-(4-((4-((4-((1-(5-fluoro-6-methylpyridin-3-yl)-1H-pyrazol-3-yl)oxy)-2-methoxyphenyl)amino)-7-methoxyquinazolin-6-yl)oxy)piperidin-1-yl)prop-2-en-1-one]	50 to 100 nM	≤ 50 nM
COc1cc2ncnc(Nc3ccc(Oc4ccn5ncnc5c4)cc3OC)c2cc1NC(=O)/C(F)=C\[C@H]1CCCN1C [Example 46, (R,E)-N-(4-((4-([1,2,4]triazolo[1,5-a]pyridin-7-yloxy)-2-methoxyphenyl)amino)-7-methoxyquinazolin-6-yl)-2-fluoro-3-(1-methylpyrrolidin-2-yl)acrylamide]	≤ 50 nM	≤ 50 nM
COc1cc2ncnc(Nc3cc(Cl)c(Oc4ccn5ncnc5c4)cc3OC)c2cc1NC(=O)/C(F)=C\[C@H]1CCCN1C [Example 51, (R,E)-N-(4-((4-([1,2,4]triazolo[1,5-a]pyridin-7-yloxy)-5-chloro-2-methoxyphenyl)amino)-7-methoxyquinazolin-6-yl)-2-fluoro-3-(1-methylpyrrolidin-2-yl)acrylamide]	≤ 50 nM	≤ 50 nM
CCN1CCC[C@@H]1/C=C(/F)C(=O)Nc1cc2c(Nc3cc(C)c(Oc4ccn5ncnc5c4)cc3OC)ncnc2cc1OC [Example 52, (R,E)-N-(4-((4-([1,2,4]triazolo[1,5-a]pyridin-7-yloxy)-2-methoxy-5-methylphenyl)amino)-7-methoxyquinazolin-6-yl)-3-(1-ethylpyrrolidin-2-yl)-2-fluoroacrylamide]	≤ 50 nM	≤ 50 nM
COc1cc2ncnc(Nc3cc(C)c(Oc4ccc5ncn(C)c5c4)cc3OC)c2cc1NC(=O)/C(F)=C\[C@H]1CCCN1C [Example 55, (R,E)-2-fluoro-N-(7-methoxy-4-((2-methoxy-5-methyl-4-((1-methyl-1H-benzo[d]imidazol-6-yl)oxy)phenyl)amino)quinazolin-6-yl)-3-(1-methylpyrrolidin-2-yl)acrylamide]	≤ 50 nM	≤ 50 nM
COc1cc2ncnc(Nc3cc(C)c(Oc4ccccc4)cc3OC)c2cc1NC(=O)/C(F)=C\[C@H]1CCCN1C [Example 74, (R,E)-2-fluoro-N-(7-methoxy-4-((2-methoxy-5-methyl-4-phenoxyphenyl)amino)quinazolin-6-yl)-3-(1-methylpyrrolidin-2-yl)acrylamide]	≤ 50 nM	≤ 50 nM
COc1cc2ncnc(Nc3cc(C)c(Oc4ccn5ccnc5c4)cc3OC)c2cc1NC(=O)/C(F)=C/[C@H]1CCCN1C [Example 76, (R,Z)-2-fluoro-N-(4-((4-(imidazo[1,2-a]pyridin-7-yloxy)-2-methoxy-5-methylphenyl)amino)-7-methoxyquinazolin-6-yl)-3-(1-methylpyrrolidin-2-yl)acrylamide]	≤ 50 nM	≤ 50 nM
COc1cc(Oc2ccn3ncnc3c2)c(C)cc1Nc1ncnc2ccc(NC(=O)/C(F)=C\[C@H]3CCCN3C)cc12 [Example 91, (R,E)-N-(4-((4-([1,2,4]triazolo[1,5-a]pyridin-7-yloxy)-2-methoxy-5-methylphenyl)amino)quinazolin-6-yl)-2-fluoro-3-(1-methylpyrrolidin-2-yl)acrylamide]	≤ 50 nM	≤ 50 nM
CCOc1cc2ncnc(Nc3cc(C)c(Oc4ccn5ncnc5c4)cc3OC)c2cc1NC(=O)/C(F)=C\[C@H]1CCCN1C [Example 93, (R,E)-N-(4-((4-([1,2,4]triazolo[1,5-a]pyridin-7-yloxy)-2-methoxy-5-methylphenyl)amino)-7-ethoxyquinazolin-6-yl)-2-fluoro-3-(1-methylpyrrolidin-2-yl)acrylamide]	≤ 50 nM	≤ 50 nM
COCCOc1cc2ncnc(Nc3cc(C)c(Oc4ccn5ncnc5c4)cc3OC)c2cc1NC(=O)/C(F)=C/[C@H]1CCCN1C [Example 95, (R,Z)—N-(4-((4-([1,2,4]triazolo[1,5-a]pyridin-7-yloxy)-2-methoxy-5-methylphenyl)amino)-7-(2-methoxyethoxy)quinazolin-6-yl)-2-fluoro-3-(1-methylpyrrolidin-2-yl)acrylamide]	≤ 50 nM	≤ 50 nM
CCOc1cc(Oc2ccn3ncnc3c2)c(C)cc1Nc1ncnc2cc(OC)c(NC(=O)/C(F)=C\[C@H]3CCCN3C)cc12 [Example 104, (R,E)-N-(4-((4-([1,2,4]triazolo[1,5-a]pyridin-7-yloxy)-2-ethoxy-5-methylphenyl)amino)-7-methoxyquinazolin-6-yl)-2-fluoro-3-(1-methylpyrrolidin-2-yl)acrylamide]	≤ 50 nM	≤ 50 nM
[2H]C([2H])([2H])N1CCC[C@@H]1/C=C(/F)C(=O)Nc1cc2c(Nc3cc(F)c(Oc4ccn5ncnc5c4)cc3OC)ncnc2cc1OC [Example 157, (R,E)-N-(4-((4-([1,2,4]triazolo[1,5-a]pyridin-7-yloxy)-5-fluoro-2-methoxyphenyl)amino)-7-methoxyquinazolin-6-yl)-2-fluoro-3-(1-(methyl-d3)pyrrolidin-2-yl)acrylamide]	≤ 50 nM	–

Further lines, results first:

GI50 (BT-474 cancer cells)	GI50 (N-87 cancer cells)	SMILES
≤ 50 nM	≤ 50 nM	C=CC(=O)N1CCC(Nc2cc3c(Nc4cc(C)c(Oc5ccn6ncnc6c5)cc4OC)ncnc3cc2OC)CC1 [Example 1, 1-(4-((4-((4-([1,2,4]triazolo[1,5-a]pyridin-7-yloxy)-2-methoxy-5-methylphenyl)amino)-7-methoxyquinazolin-6-yl)amino)piperidin-1-yl)prop-2-en-1-one]
≤ 50 nM	≤ 50 nM	C=CC(=O)N1CCC(Nc2cc3c(Nc4cc(Cl)c(Oc5ccccn5)cc4OC)ncnc3cc2OC)CC1 [Example 3, 1-(4-((4-((5-chloro-2-methoxy-4-(pyridin-2-yloxy)phenyl)amino)-7-methoxyquinazolin-6-yl)amino)piperidin-1-yl)prop-2-en-1-one]
≤ 50 nM	≤ 50 nM	C=CC(=O)N1CCC(Oc2cc3c(Nc4cc(Cl)c(Oc5ccn6ncnc6c5)cc4OC)ncnc3cc2OC)CC1 [Example 5, 1-(4-((4-((4-([1,2,4]triazolo[1,5-a]pyridin-7-yloxy)-5-chloro-2-methoxyphenyl)amino)-7-methoxyquinazolin-6-yl)oxy)piperidin-1-yl)prop-2-en-1-one]
≤ 50 nM	≤ 50 nM	C=CC(=O)N1CCC(Oc2cc3c(Nc4cc(Cl)c(Oc5cccc(F)c5)cc4OC)ncnc3cc2OC)C(F)C1 (stereo not drawn) [Example 6, 1-(4-((4-((5-chloro-4-(3-fluorophenoxy)-2-methoxyphenyl)amino)-7-methoxyquinazolin-6-yl)oxy)-3-fluoropiperidin-1-yl)prop-2-en-1-one]
≤ 50 nM	≤ 50 nM	C=CC(=O)N1CCC(Oc2cc3c(Nc4ccc(Oc5cccc(F)c5)cc4OC)ncnc3cc2OC)CC1 [Example 7, 1-(4-((4-((4-(3-fluorophenoxy)-2-methoxyphenyl)amino)-7-methoxyquinazolin-6-yl)oxy)piperidin-1-yl)prop-2-en-1-one]
≤ 50 nM	≤ 50 nM	C=CC(=O)N1CCC(Oc2cc(OC)cc3ncnc(Nc4cc(C)c(Oc5ccn6ncnc6c5)cc4OC)c23)C(F)(F)C1 (stereo not drawn) [Example 15, 1-(4-((4-((4-([1,2,4]triazolo[1,5-a]pyridin-7-yloxy)-2-methoxy-5-methylphenyl)amino)-7-methoxyquinazolin-5-yl)oxy)-3,3-difluoropiperidin-1-yl)prop-2-en-1-one]
≤ 50 nM	≤ 50 nM	C=CC(=O)N1CCC(F)(F)C(Oc2cc(OC)cc3ncnc(Nc4cc(C)c(Oc5ccn6ncnc6c5)cc4OC)c23)C1 (stereo not drawn) [Example 16, 1-(3-((4-((4-([1,2,4]triazolo[1,5-a]pyridin-7-yloxy)-2-methoxy-5-methylphenyl)amino)-7-methoxyquinazolin-5-yl)oxy)-4,4-difluoropiperidin-1-yl)prop-2-en-1-one]
≤ 50 nM	≤ 50 nM	C=CC(=O)Nc1cc2c(Nc3cc(Cl)c(Oc4ccccn4)cc3OC)ncnc2cc1OC [Example 24, N-(4-((5-chloro-2-methoxy-4-(pyridin-2-yloxy)phenyl)amino)-7-methoxyquinazolin-6-yl)acrylamide]
≤ 50 nM	≤ 50 nM	COc1cc2ncnc(Nc3cc(Cl)c(Oc4cccc(F)c4)cc3OC)c2cc1NC(=O)/C=C/[C@H]1CCCN1 [Example 31, (R,E)-N-(4-((5-chloro-4-(3-fluorophenoxy)-2-methoxyphenyl)amino)-7-methoxyquinazolin-6-yl)-3-(pyrrolidin-2-yl)acrylamide]
≤ 50 nM	≤ 50 nM	COc1cc2ncnc(Nc3cc(Cl)c(Oc4ccn5ncnc5c4)cc3OC)c2cc1NC(=O)/C=C/[C@H]1CCCN1C [Example 32, (R,E)-N-(4-((4-([1,2,4]triazolo[1,5-a]pyridin-7-yloxy)-5-chloro-2-methoxyphenyl)amino)-7-methoxyquinazolin-6-yl)-3-(1-methylpyrrolidin-2-yl)acrylamide]
≤ 50 nM	≤ 50 nM	COc1cc2ncnc(Nc3cc(C)c(Oc4ccn5ncnc5c4)cc3OC)c2cc1NC(=O)/C(F)=C\[C@H]1CCCN1C [Example 41, (R,E)-N-(4-((4-([1,2,4]triazolo[1,5-a]pyridin-7-yloxy)-2-methoxy-5-methylphenyl)amino)-7-methoxyquinazolin-6-yl)-2-fluoro-3-(1-methylpyrrolidin-2-yl)acrylamide]
